Source: patent publication US20110200693A1, “INCREASING THE EFFICIENCY OF UTILIZATION OF INGESTED CREATINE” (priority 2007, published 2011)

What was measured:
[1] = doses from 8 g/d to 21 g/d during 1 to 14 days; cited from earlier work
[2] = Plasma creatine kinetics after a single ingestion of 2 g creatine (one-open compartmental model); assay type: in vivo, human; conditions: 2 g creatine oral, not influenced by the form ingested
Protocol: The health status questionnaire was filled in again.
Venous blood was collected on heparin as an anticoagulant. The tubes were placed immediately on ice and centrifuged at 3000 g for 6 min at 4° C. […] NaOH 0.1M (90 μL) was added to supernatant (300 μL) to obtain a pH value of about 7.8. Samples were stored at −20° C.
Using a Marquardt algorithm, all kinetics were fitted with the following equation: […]
This equation corresponds to a one-open compartmental model in which ka, kel and tlag are the primary parameters. Knowing their value, new kinetic parameters of plasma creatine were calculated:
Since the bioavailability (F) may not be measured, only the apparent volume of distribution and the apparent clearance can be estimated:
Vd: the apparent volume of distribution (Vd=V/F, L)

apparent volume of distribution relative to body mass [2]: about 75 % of body mass
SMILES: CN(CC(=O)O)C(=N)N [creatine]
fraction of ingested creatine excreted in urine [1]: 33 to 77 % of the original dose
